Experiments:
Format in all cases: in vivo, human
[1] = Blood PK of total NAC and GSH after a single dose of IN NAC in healthy participants
Protocol: (§1) Various assays were designed and tested assess the feasibility of IN NAC administration for direct nose-to-brain delivery as shown and described for FIGS. 1-4. Assays include studies in healthy participants using ^1H-MRS assessment of change from baseline in NAC-derived metabolic markers in three brain regions (occipital cortex, striatum, and DLPF), following a single dose of 196 mg to 200 mg IN NAC at 1, 3, and 6 hours.
Concentrations of the targeted metabolites were reported for various time points to assess total NAC and GSH concentrations. Mean (±standard error [SE]) of blood PK data were plotted on linear and semi logarithmic scales (FIGS. 1-2).

[2] = test system: regional brain GSH/creatine ratio; assay: 1H-MRS change from baseline of regional brain GSH/Creatine ratio after single dose IN NAC
Protocol: as §1
(§2) Magnetic resonance (MR) spectra of NAC-derived brain metabolites in three brain regions (occipital cortex, striatum, and DLPF) at baseline and 1, 3, and 6 hours following IN NAC were assessed. Percentage change from Baseline of GSH/Creatine and N-Acetylaspartate (NAA)/Creatine in the three regions by treatment group were plotted (FIGS. 3-4).

NAA/creatine ratio = assay: 1H-MRS change from baseline of regional brain NAA/Creatine ratio after single dose IN NAC; conditions: for increase of NAA/creatine ratio post-dose: dorsolateral prefrontal cortex
Protocol: as §1, §2

SMILES: CC(=O)N[C@@H](CS)C(=O)O [NAC, N-acetylcysteine]
- mean percentage change from Baseline in NAC (blood) ([1]; 196 mg IN NAC, APTAR 5 mL CPS Syringe, 1 hour post-dose): 2881.66%
- mean percentage change from Baseline in NAC (blood) ([1]; 196 mg IN NAC, APTAR 5 mL CPS Syringe, 3 hours post-dose): 1158.20%
- mean percentage change from Baseline in NAC (blood) ([1]; 196 mg IN NAC, APTAR 5 mL CPS Syringe, 6 hours post-dose): 419.35%
- mean percentage change from Baseline in NAC (blood) ([1]; 200 mg IN NAC, Teleflex MAD device, 1 hour post-dose): 2379.60%
- mean percentage change from Baseline in NAC (blood) ([1]; 200 mg IN NAC, Teleflex MAD device, 3 hours post-dose): 1117.01%
- mean percentage change from Baseline in NAC (blood) ([1]; 200 mg IN NAC, Teleflex MAD device, 6 hours post-dose): 438.17%
- effect on regional brain GSH (overall) ([2]; 196 mg IN NAC, APTAR 5 mL CPS Syringe, 1, 3 and 6 hour post-dose timepoints): failed to produce consistent elevation
- effect on regional brain GSH (overall) ([2]; 200 mg IN NAC, Teleflex MAD device, 5 participants with analyzable MRS data): time- and region-dependent increase
- increase of regional brain GSH/creatine ratio relative to pre-dose baseline ([2]; dorsolateral prefrontal cortex (n=5), 200 mg IN NAC, Teleflex MAD device, 1 hour post-dose): ~17%
- increase of regional brain GSH/creatine ratio relative to pre-dose baseline ([2]; dorsolateral prefrontal cortex (n=5), 200 mg IN NAC, Teleflex MAD device, 3 hours post-dose): ~42%
- increase of regional brain GSH/creatine ratio relative to pre-dose baseline ([2]; dorsolateral prefrontal cortex (n=5), 200 mg IN NAC, Teleflex MAD device, 6 hours post-dose): ~34%
- increase of regional brain GSH/creatine ratio relative to pre-dose baseline ([2]; dorsolateral prefrontal cortex, 196 mg IN NAC, APTAR 5 mL CPS Syringe (n=3), 1 hour): 18%
- decrease of regional brain GSH/creatine ratio relative to pre-dose baseline ([2]; dorsolateral prefrontal cortex, 196 mg IN NAC, APTAR 5 mL CPS Syringe (n=3), 3 hours): 71%
- increase of regional brain GSH/creatine ratio relative to pre-dose baseline ([2]; dorsolateral prefrontal cortex, 196 mg IN NAC, APTAR 5 mL CPS Syringe (n=3), 6 hours): 4%
- increase of regional brain GSH/creatine ratio relative to pre-dose baseline ([2]; occipital cortex (n=5), 200 mg IN NAC, Teleflex MAD device, 1 hour post-dose): ~25%
- increase of regional brain GSH/creatine ratio relative to pre-dose baseline ([2]; occipital cortex (n=5), 200 mg IN NAC, Teleflex MAD device, 3 hours post-dose): ~49%
- increase of regional brain GSH/creatine ratio relative to pre-dose baseline ([2]; occipital cortex (n=5), 200 mg IN NAC, Teleflex MAD device, 6 hours post-dose): ~21%
- decrease of regional brain GSH/creatine ratio relative to pre-dose baseline ([2]; occipital cortex, 196 mg IN NAC, APTAR 5 mL CPS Syringe (n=3), 1 hour): 17%
- increase of regional brain GSH/creatine ratio relative to pre-dose baseline ([2]; occipital cortex, 196 mg IN NAC, APTAR 5 mL CPS Syringe (n=3), 3 hours): 2%
- increase of regional brain GSH/creatine ratio relative to pre-dose baseline ([2]; occipital cortex, 196 mg IN NAC, APTAR 5 mL CPS Syringe (n=3), 6 hours): 1%
- increase of regional brain GSH/creatine ratio relative to pre-dose baseline ([2]; striatum (n=4), 200 mg IN NAC, Teleflex MAD device, 1 hour post-dose): approximately 36%
- increase of regional brain GSH/creatine ratio relative to pre-dose baseline ([2]; striatum (n=4), 200 mg IN NAC, Teleflex MAD device, 3 hours post-dose): ~20%
- increase of regional brain GSH/creatine ratio relative to pre-dose baseline ([2]; striatum (n=4), 200 mg IN NAC, Teleflex MAD device, 6 hours post-dose): ~14%
- increase of regional brain GSH/creatine ratio relative to pre-dose baseline ([2]; striatum, 196 mg IN NAC, APTAR 5 mL CPS Syringe (n=3), 1 hour): 2%
- decrease of regional brain GSH/creatine ratio relative to pre-dose baseline ([2]; striatum, 196 mg IN NAC, APTAR 5 mL CPS Syringe (n=3), 3 hours): 11%
- change of regional brain GSH/creatine ratio relative to pre-dose baseline ([2]; striatum, 196 mg IN NAC, APTAR 5 mL CPS Syringe (n=3), 6 hours): extreme variability
- increase of NAA/creatine ratio post-dose (NAA/creatine ratio; 196 mg dose group, second of two values, time point unclear (1, 3 and 6 hours named)): 9.0%
- increase of NAA/creatine ratio post-dose (NAA/creatine ratio; 196 mg dose group, time point unclear (1, 3 and 6 hours named)): 7.9%
- increase of NAA/creatine ratio post-dose (NAA/creatine ratio; 200 mg dose group, 1 hour post-dose): 4.5%
- increase of NAA/creatine ratio post-dose (NAA/creatine ratio; 200 mg dose group, 3 hours post-dose): 6.0%
- increase of NAA/creatine ratio post-dose (NAA/creatine ratio; 200 mg dose group, 6 hours post-dose): 3.8%
- post-dose changes in the NAA/creatine ratio relative to baseline (NAA/creatine ratio; striatum and occipital cortex, both dose groups (200 mg and 196 mg), described as minimal): ≤ 2.5%
- post-dose changes in the NAA/creatine ratio (NAA/creatine ratio; striatum, 6 hours, 196 mg cohort): highly variable changes
